From PubChem BioAssay AID248 (DTP/NCI, 2004)
“And” between values parts separate entries of the source, which are not always exact repeats. Equal entries are not always repeated. Toxic doses and inconclusive results are not listed. Rule as the data show it: active = T/C of 150% or more; inactive = T/C below 125%.

System: L1210 leukemia ip in BDF1 mice, survival T/C
Experiment: NCI In Vivo Anticancer Drug Screen. Data for tumor model L1210 Leukemia (intraperitoneal) in B6D2F1 (BDF1) mice
Conditions: endpoint: mean survival time, higher = longer survival
Summary of the method: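 Ratio derived from survival: compound-dosed mice over vehicle-dosed mice, all bearing a transplantable tumor.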

[1] = dose: 100.0 mg/kg/injection, schedule: Q01DX009 (ip), vehicle: saline with Tween-80
[2] = dose: 200.0 mg/kg/injection, schedule: Q01DX009 (ip), vehicle: saline with Tween-80
[3] = dose: 100.0 mg/kg/injection, schedule: Q01DX001 (ip), vehicle: saline
[4] = dose: 200.0 mg/kg/injection, schedule: Q01DX001 (ip), vehicle: saline
[5] = dose: 400.0 mg/kg/injection, schedule: Q01DX001 (ip), vehicle: saline
[6] = dose: 100.0 mg/kg/injection, schedule: Q04DX002 (ip), vehicle: Klucel (hydroxypropylcellulose) (HPC)
[7] = dose: 200.0 mg/kg/injection, schedule: Q04DX002 (ip), vehicle: Klucel (hydroxypropylcellulose) (HPC)
[8] = dose: 100.0 mg/kg/injection, schedule: Q01DX009 (ip), vehicle: Klucel (hydroxypropylcellulose) (HPC)
[9] = dose: 200.0 mg/kg/injection, schedule: Q01DX009 (ip), vehicle: Klucel (hydroxypropylcellulose) (HPC)
[10] = dose: 400.0 mg/kg/injection, schedule: Q01DX009 (ip), vehicle: Klucel (hydroxypropylcellulose) (HPC)
[11] = dose: 100.0 mg/kg/injection, schedule: Q04DX003 (ip), vehicle: Klucel (hydroxypropylcellulose) (HPC)
[12] = dose: 200.0 mg/kg/injection, schedule: Q04DX003 (ip), vehicle: Klucel (hydroxypropylcellulose) (HPC)
[13] = dose: 400.0 mg/kg/injection, schedule: Q04DX003 (ip), vehicle: Klucel (hydroxypropylcellulose) (HPC)
[14] = dose: 400.0 mg/kg/injection, schedule: Q01DX009 (ip), vehicle: saline with Tween-80
[15] = dose: 100.0 mg/kg/injection, schedule: Q01DX001 (ip), vehicle: other
[16] = dose: 200.0 mg/kg/injection, schedule: Q01DX001 (ip), vehicle: other
[17] = dose: 400.0 mg/kg/injection, schedule: Q01DX001 (ip), vehicle: other
[18] = dose: 100.0 mg/kg/injection, schedule: Q04DX003 (ip), vehicle: saline with Tween-80
[19] = dose: 200.0 mg/kg/injection, schedule: Q04DX003 (ip), vehicle: saline with Tween-80
[20] = dose: 400.0 mg/kg/injection, schedule: Q04DX003 (ip), vehicle: saline with Tween-80

Measured: T/C

CCCCC1(C2CCCC2)NC(C)(C)CC(C)O1 (centres undefined)
inactive: [1] 95 % of control | [2] 104 % of control

CCN(CC)C(=O)Nc1ccc(O)c(C(=O)O)c1
inactive: [3] 98 % of control | [4] 95 % of control | [5] 96 % of control

COC1=CC=C2C3Cc4ccc(OC)c(O)c4C2(C1)CN3C (centres undefined)
inactive: dose: 100.0 mg/kg/injection, schedule: Q04DX003 (ip), vehicle: other 96 % of control

Cc1cc2c([N+](=O)[O-])c3cccnn3c2nn1
inactive: dose: 50.0 mg/kg/injection, schedule: Q04DX002 (ip), vehicle: Klucel (hydroxypropylcellulose) (HPC) 114 % of control | [6] 111 % of control | [7] 91 % of control

CN(C)N=Nc1ccccc1[N+](=O)[O-]
inactive: dose: 30.0 mg/kg/injection, schedule: Q01DX009 (ip), vehicle: saline with Tween-80 99 % of control | dose: 50.0 mg/kg/injection, schedule: Q01DX001 (ip), vehicle: saline 103 % of control | dose: 53.0 mg/kg/injection, schedule: Q01DX009 (ip), vehicle: saline with Tween-80 118 % of control | dose: 60.0 mg/kg/injection, schedule: Q01DX009 (ip), vehicle: saline with Tween-80 106 % of control | [3] 101 % of control | dose: 119.0 mg/kg/injection, schedule: Q04DX003 (ip), vehicle: saline 107 % of control | dose: 120.0 mg/kg/injection, schedule: Q01DX009 (ip), vehicle: saline with Tween-80 113 % of control | dose: 178.0 mg/kg/injection, schedule: Q04DX003 (ip), vehicle: saline 118 % of control | dose: 267.0 mg/kg/injection, schedule: Q04DX003 (ip), vehicle: saline 92 % of control

COC(=O)C(Cc1ccc(C)cc1)N1CCCCC1 (centres undefined)
inactive: dose: 100.0 mg/kg/injection, schedule: Q01DX001 (ip), vehicle: carboxymethylcellulose (CMC) 101 % of control | dose: 200.0 mg/kg/injection, schedule: Q01DX001 (ip), vehicle: carboxymethylcellulose (CMC) 101 % of control | dose: 400.0 mg/kg/injection, schedule: Q01DX001 (ip), vehicle: carboxymethylcellulose (CMC) 98 % of control

CC1=C(/C=C/C(C)=C/C=C/C(C)=C/C=O)C(C)(C)CCC1
inactive: dose: 50.0 mg/kg/injection, schedule: Q01DX009 (ip), vehicle: steriod suspending solution 89 % of control and 95 % of control | dose: 100.0 mg/kg/injection, schedule: Q01DX009 (ip), vehicle: steriod suspending solution 92 % of control | dose: 200.0 mg/kg/injection, schedule: Q01DX001 (sc), vehicle: steriod suspending solution 96 % of control and 95 % of control | dose: 400.0 mg/kg/injection, schedule: Q01DX001 (sc), vehicle: steriod suspending solution 96 % of control

c1ccc(C2O[O][Sn]([c]3ccccc3)([c]3ccccc3)[O]2)cc1 (centres undefined)
inactive: dose: 25.0 mg/kg/injection, schedule: Q04DX002 (ip), vehicle: gum acacia 97 % of control | dose: 50.0 mg/kg/injection, schedule: Q04DX002 (ip), vehicle: gum acacia 111 % of control | dose: 100.0 mg/kg/injection, schedule: Q04DX002 (ip), vehicle: gum acacia 105 % of control and 86 % of control

O=C(Nc1ccc(Cl)c(Cl)c1)OCC1CC2C=CC1C2 (centres undefined)
inactive: [8] 100 % of control | [9] 97 % of control | [10] 106 % of control

OC(c1ccccc1)C(c1ccccc1)N1CCCC1 (centres undefined)
inactive: dose: 75.0 mg/kg/injection, schedule: Q01DX001 (ip), vehicle: saline 94 % of control | dose: 150.0 mg/kg/injection, schedule: Q01DX001 (ip), vehicle: saline 97 % of control | dose: 300.0 mg/kg/injection, schedule: Q01DX001 (ip), vehicle: saline 92 % of control

CN(Cc1cnc2cc(N)nc(N)c2n1)c1ccc(C(=O)O)cc1
inactive: dose: 25.0 mg/kg/injection, schedule: Q01DX009 (ip), vehicle: other 108 % of control | dose: 50.0 mg/kg/injection, schedule: Q01DX009 (ip), vehicle: other 106 % of control | dose: 75.0 mg/kg/injection, schedule: Q01DX001 (ip), vehicle: other 98 % of control | dose: 100.0 mg/kg/injection, schedule: Q01DX009 (ip), vehicle: other 101 % of control | dose: 150.0 mg/kg/injection, schedule: Q01DX001 (ip), vehicle: other 102 % of control | dose: 300.0 mg/kg/injection, schedule: Q01DX001 (ip), vehicle: other 105 % of control

Nc1ccccc1C(=O)OCCc1ccccc1
inactive: [8] 93 % of control | [11] 94 % of control | [9] 93 % of control | [12] 95 % of control | [10] 95 % of control | [13] 92 % of control

O=C(O)C(Br)C(Br)C(=O)Nc1ccc(Cl)c(Cl)c1 (centres undefined)
inactive: [1] 101 % of control | [2] 104 % of control | [14] 93 % of control

COC(=O)N(CCCCN(N=O)C(=O)OC)N=O
inactive: [6] 101 % of control | [7] 108 % of control

COc1ccc(C2(C=O)CN(C)CN2)cc1 (centres undefined)
inactive: [15] 96 % of control | [16] 107 % of control | [17] 96 % of control

COc1ccc(NC(=O)Nc2cc(Cl)ccc2OC)c(OC)c1
inactive: [8] 94 % of control | [11] 103 % of control | [9] 102 % of control | [12] 101 % of control | [10] 96 % of control | [13] 101 % of control

COc1cc(Nc2nc(Cl)ncc2[N+](=O)[O-])cc(OC)c1OC
inactive: [18] 90 % of control | [19] 92 % of control | [20] 92 % of control

C=CC(C)C1CCC2(C)C3=C(C(=O)CC12C)C1(C)C/C(=N/O)C(O)C(C)(C)C1=C(O)C3=O (centres undefined)
inactive: dose: 100.0 mg/kg/injection, schedule: Q04DX003 (ip), vehicle: saline 98 % of control | dose: 200.0 mg/kg/injection, schedule: Q04DX003 (ip), vehicle: saline 95 % of control | dose: 400.0 mg/kg/injection, schedule: Q04DX003 (ip), vehicle: saline 98 % of control

CN(C)P1(=O)N(C)CCN1C
inactive: [3] 100 % of control | [4] 98 % of control | [5] 94 % of control

O=S(=O)(CCCCCl)Nc1ccc(NS(=O)(=O)CCCCCl)cc1
inactive: dose: 100.0 mg/kg/injection, schedule: Q01DX001 (ip), vehicle: saline with Tween-80 102 % of control | [18] 97 % of control | dose: 200.0 mg/kg/injection, schedule: Q01DX001 (ip), vehicle: saline with Tween-80 92 % of control | [19] 90 % of control | dose: 400.0 mg/kg/injection, schedule: Q01DX001 (ip), vehicle: saline with Tween-80 92 % of control | [20] 92 % of control

CCOc1cc2ccc3c4cc(OC)c(OC)cc4c[n+](C)c3c2cc1OCC
inactive: dose: 100.0 mg/kg/injection, schedule: Q04DX002 (ip), vehicle: saline with Tween-80 98 % of control

Cl/C(=C\c1ccccc1)c1ccccc1
inactive: dose: 25.0 mg/kg/injection, schedule: Q04DX003 (ip), vehicle: Klucel (hydroxypropylcellulose) (HPC) 96 % of control | dose: 50.0 mg/kg/injection, schedule: Q04DX003 (ip), vehicle: Klucel (hydroxypropylcellulose) (HPC) 95 % of control | [11] 96 % of control | [13] 101 % of control

CCCCNC(=O)Nc1ccc(N(CC)CC)cc1
inactive: [1] 101 % of control | [18] 94 % of control | [2] 88 % of control | [19] 97 % of control | [14] 90 % of control | [20] 100 % of control

C/C(=N\N(Cc1ccc(CN(/N=C(\C)c2ccccc2)c2ccccc2)cc1)c1ccccc1)c1ccccc1
inactive: [15] 86 % of control | [16] 89 % of control | [17] 89 % of control

COc1ccc(O)c(N=Nc2nccs2)c1
inactive: dose: 50.0 mg/kg/injection, schedule: Q01DX009 (ip), vehicle: saline with Tween-80 109 % of control | [1] 106 % of control | [2] 102 % of control

O=C(O)c1ccccc1C(=O)NCCCc1ccccc1
inactive: [15] 98 % of control | [16] 98 % of control | [17] 96 % of control

COC(=O)/C=C\C[P+](c1ccccc1)(c1ccccc1)c1ccccc1
inactive: dose: 12.5 mg/kg/injection, schedule: Q04DX003 (ip), vehicle: saline 103 % of control | dose: 25.0 mg/kg/injection, schedule: Q04DX003 (ip), vehicle: saline 97 % of control | dose: 50.0 mg/kg/injection, schedule: Q04DX003 (ip), vehicle: saline 100 % of control | [3] 101 % of control
